Test results: article PMC7083837 (Nature Communications, 2020)
Values joined by “and” are separate entries in the source; they are usually repeats but may differ in a detail not shown here. Identical values can stand only once.

How the values were obtained:
SERT WT [1] = target: T1, SERT WT (Homo sapiens, UniProt P31645); test: [3H]IMI dissociation rate assay (allosteric potency); type: binding;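 also: membranes of COS-7 cells transiently expressing hSERT, dissociation of prebound radioligand tracked by filtration over seven time points (5–70 min), rate constant with test ligand expressed relative to buffer-only rate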
T1 construct: expressed in transfected cells; host or cells: COS-7
T1 sequence (P31645 whole entry): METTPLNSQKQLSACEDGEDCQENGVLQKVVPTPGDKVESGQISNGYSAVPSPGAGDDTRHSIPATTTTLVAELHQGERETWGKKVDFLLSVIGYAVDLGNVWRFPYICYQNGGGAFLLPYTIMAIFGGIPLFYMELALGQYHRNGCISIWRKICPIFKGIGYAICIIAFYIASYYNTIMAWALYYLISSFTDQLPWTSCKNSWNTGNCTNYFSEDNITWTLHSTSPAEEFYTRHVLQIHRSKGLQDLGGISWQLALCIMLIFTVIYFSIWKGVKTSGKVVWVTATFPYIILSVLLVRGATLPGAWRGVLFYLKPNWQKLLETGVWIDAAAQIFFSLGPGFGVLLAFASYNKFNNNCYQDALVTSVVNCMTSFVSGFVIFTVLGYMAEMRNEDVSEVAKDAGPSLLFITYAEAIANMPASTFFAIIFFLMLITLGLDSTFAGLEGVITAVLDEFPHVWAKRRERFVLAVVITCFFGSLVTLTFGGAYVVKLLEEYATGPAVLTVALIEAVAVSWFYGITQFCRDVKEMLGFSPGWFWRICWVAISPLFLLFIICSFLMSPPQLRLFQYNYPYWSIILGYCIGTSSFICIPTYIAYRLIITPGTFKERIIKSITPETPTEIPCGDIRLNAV

SERT WT [2] = target: T1, SERT WT; test: [3H]S-CIT dissociation rate assay (allosteric potency); type: binding
SERT WT [3] = target: T1, SERT WT; test: [3H]5-HT uptake in intact COS-7 cells; type: cell-based; design: 5-HT uptake: unit not given here; details: for 5-HT uptake: Fig 5B
SERT F556R = target: T2, SERT F556R (Homo sapiens, UniProt P31645, F556R); test: [3H]5-HT uptake in intact COS-7 cells; type: cell-based; details: Fig 5A
T2 construct: expressed in transfected cells; host or cells: COS-7
T2 sequence (P31645 whole entry F556R): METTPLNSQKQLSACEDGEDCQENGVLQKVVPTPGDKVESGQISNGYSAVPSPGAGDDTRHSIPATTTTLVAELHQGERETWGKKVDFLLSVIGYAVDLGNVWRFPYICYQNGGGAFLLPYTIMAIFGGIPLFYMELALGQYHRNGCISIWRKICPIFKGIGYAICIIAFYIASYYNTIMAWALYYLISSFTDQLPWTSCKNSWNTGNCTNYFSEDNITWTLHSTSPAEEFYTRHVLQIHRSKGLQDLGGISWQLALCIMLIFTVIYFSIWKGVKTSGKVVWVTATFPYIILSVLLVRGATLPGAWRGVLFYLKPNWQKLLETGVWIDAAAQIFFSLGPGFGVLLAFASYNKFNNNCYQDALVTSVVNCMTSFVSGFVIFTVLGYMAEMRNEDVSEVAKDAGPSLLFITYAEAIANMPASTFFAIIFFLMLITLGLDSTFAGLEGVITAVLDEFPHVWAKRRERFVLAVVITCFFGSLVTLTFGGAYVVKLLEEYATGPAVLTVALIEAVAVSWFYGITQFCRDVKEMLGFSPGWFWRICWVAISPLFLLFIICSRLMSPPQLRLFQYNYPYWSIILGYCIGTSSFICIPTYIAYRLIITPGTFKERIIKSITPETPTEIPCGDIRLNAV

NC(=O)c1ccc2c(c1)CO[C@@]2(CCCN1CCC(c2ccc3ccc(=O)[nH]c3c2)CC1)c1ccc(F)cc1 [Lu AF60097, (S)-1-(4-fluorophenyl)-1-(3-(4-(2-oxo-1,2-dihydroquinolin-7-yl)piperidin-1-yl)propyl)-1,3-dihydroisobenzofuran-5-carboxamide]
Higher allosteric potency with prebound [^3H]IMI relative to prebound [^3H]S-CIT (SERT WT [1]; SERT WT): 200 fold | [^3H]IMI dissociation relative to control (source data Fig 3C) (SERT WT [1]; SERT WT, log conc -5.4318): 0.0325 | [^3H]IMI dissociation relative to control (source data Fig 3C) (SERT WT [1]; SERT WT, log conc -7.3398): 0.5967 and 0.5153 and 0.3551 and 0.4862 and 0.4455 | [^3H]IMI dissociation relative to control (source data Fig 3C) (SERT WT [1]; SERT WT, log conc -7.817): 0.6907 and 0.7383 and 0.5957 and 0.7538 and 0.5364 | [^3H]IMI dissociation relative to control (source data Fig 3C) (SERT WT [1]; SERT WT, log conc -8.2941): 0.7767 and 0.8969 and 0.8389 and 0.8612 and 0.685 | [^3H]IMI dissociation relative to control (source data Fig 3C) (SERT WT [1]; SERT WT, log conc -8.7712): 0.9679 and 0.8619 | IC50 (SERT WT [1]; SERT WT, read-out: Allosteric potency inhibition of [^3H]IMI dissociation (IC50)): 31.4 nM and 31 nM | Gain in allosteric potency relative to any other reported S2-bound hSERT ligand (SERT WT [1]; comparison with ref 22): > 100 fold | Increase in allosteric potency compared with citalopram (SERT WT [1]; in the presence of S1:IMI): > 150 fold | [^3H]S-CIT dissociation relative to control (source data Fig 3B) (SERT WT [2]; log conc -4): 0.1541 and 0.1918 and 0.2298 | [^3H]S-CIT dissociation relative to control (source data Fig 3B) (SERT WT [2]; log conc -4.47756): 0.2646 and 0.3943 and 0.2986 and 0.219 and 0.3366 | [^3H]S-CIT dissociation relative to control (source data Fig 3B) (SERT WT [2]; log conc -4.95468): 0.4248 and 0.6032 and 0.3921 and 0.3044 and 0.3481 | [^3H]S-CIT dissociation relative to control (source data Fig 3B) (SERT WT [2]; log conc -5.4318): 0.6087 and 0.8042 and 0.6275 and 0.541 and 0.6453 | [^3H]S-CIT dissociation relative to control (source data Fig 3B) (SERT WT [2]; log conc -5.9101): 0.7519 and 0.9034 and 0.8094 and 0.7437 and 0.8779 | [^3H]S-CIT dissociation relative to control (source data Fig 3B) (SERT WT [2]; log conc -6.38561): 0.8673 and 0.9045 and 0.9664 and 0.838 and 0.8643 | [^3H]S-CIT dissociation relative to control (source data Fig 3B) (SERT WT [2]; log conc -6.86273): 0.9943 and 0.9294 and 0.9623 | IC50 (SERT WT [2]; read-out: Allosteric potency inhibition of [^3H]S-CIT dissociation (IC50)): 6500 nM | Vmax 5-HT (SERT WT [3]; 10 nM Lu AF60097): 1232 ± 48 fmol/min | Vmax 5-HT (SERT WT [3]; 20 nM Lu AF60097): 1279 ± 64 fmol/min | Vmax 5-HT (SERT WT [3]; 40 nM Lu AF60097): 1007 ± 58 fmol/min | Vmax 5-HT (SERT WT [3]; 80 nM Lu AF60097): 1361 ± 78 fmol/min | Vmax 5-HT (SERT WT [3]; 160 nM Lu AF60097): 1235 ± 34 fmol/min | Vmax 5-HT (SERT WT [3]; 320 nM Lu AF60097): 973 ± 25 fmol/min | Vmax 5-HT (SERT WT [3]; 640 nM Lu AF60097): 971 ± 21 fmol/min | inhibition at 0.027 µM (SERT WT [3]; COS-7, read-out: Decrease (inhibition) of [^3H]5-HT uptake relative to control, IMI 4 nM, Lu AF60097 27 nM, alone or together): 5 ± 1.8% | 5-HT uptake (SERT WT [3]; 0.1474 µM 5HT, 10 nM AF60097): 289.4 and 268.7 and 257.4 and 246.6 and 314.6 | 5-HT uptake (SERT WT [3]; 0.1474 µM 5HT, 20 nM AF60097): 295.7 and 305.6 and 246.2 and 292.1 and 271.4 | 5-HT uptake (SERT WT [3]; 0.1474 µM 5HT, 80 nM AF60097): 149 and 175.1 and 138.2 and 177.3 and 172.8 | 5-HT uptake (SERT WT [3]; 0.1474 µM 5HT, 160 nM AF60097): 193.5 and 184.1 and 172.4 and 177.3 and 155.3 | 5-HT uptake (SERT WT [3]; 0.1474 µM 5HT, 320 nM AF60097): 124.2 and 120.2 and 98.55 and 160.4 and 125 | 5-HT uptake (SERT WT [3]; 0.1474 µM 5HT, 640 nM AF60097): 82.89 and 76.41 and 75.6 and 73.71 | 5-HT uptake (SERT WT [3]; 0.2395 µM 5HT, 10 nM AF60097): 401.9 and 351.5 and 378.9 and 356.9 and 437.9 | 5-HT uptake (SERT WT [3]; 0.2395 µM 5HT, 20 nM AF60097): 431.1 and 402.3 and 370.8 and 428 and 381.2 | 5-HT uptake (SERT WT [3]; 0.2395 µM 5HT, 80 nM AF60097): 239.4 and 237.2 and 197.1 and 278.1 and 258.3 | 5-HT uptake (SERT WT [3]; 0.2395 µM 5HT, 160 nM AF60097): 283.1 and 275.9 and 262.8 and 254.3 and 202.5 | 5-HT uptake (SERT WT [3]; 0.2395 µM 5HT, 320 nM AF60097): 170.4 and 178.2 and 155 and 215.5 and 193.6 | 5-HT uptake (SERT WT [3]; 0.2395 µM 5HT, 640 nM AF60097): 119.3 and 114.2 and 108 and 121.2 | 5-HT uptake (SERT WT [3]; 0.4844 µM 5HT, 10 nM AF60097): 585 | 5-HT uptake (SERT WT [3]; 0.4844 µM 5HT, 20 nM AF60097): 624.2 and 642.2 and 563.4 and 555.8 and 512.1 | 5-HT uptake (SERT WT [3]; 0.4844 µM 5HT, 160 nM AF60097): 469.4 and 426.6 and 404.6 and 365.9 and 356 | 5-HT uptake (SERT WT [3]; 0.4844 µM 5HT, 320 nM AF60097): 301.6 and 284.3 and 264.9 | 5-HT uptake relative to ctrl (ctrl = 100) (SERT WT [3]; Fig 5C, 27 nM AF60097): 100 and 97 and 96 and 91 and 88 | [^3H]5-HT uptake (in % of buffer/control) (SERT WT [3]; IMI 4 nM, Lu AF60097 27 nM, alone or together): 95 ± 1.8% | Ki (SERT WT [3]; SERT WT): 220 nM | IC50 (SERT WT [3]; hSERT in COS-7 cells): 207 nM | 5-HT uptake inhibition by Lu AF60097 (SERT F556R; [Lu AF60097] -5.5): 0.1354 | 5-HT uptake inhibition by Lu AF60097 (SERT F556R; [Lu AF60097] -6): 0.2671 | 5-HT uptake inhibition by Lu AF60097 (SERT F556R; [Lu AF60097] -6.5): 0.5785 | 5-HT uptake inhibition by Lu AF60097 (SERT F556R; [Lu AF60097] -7): 0.7467 | 5-HT uptake inhibition by Lu AF60097 (SERT F556R; [Lu AF60097] -7.5): 0.9156 | 5-HT uptake inhibition by Lu AF60097 (SERT F556R; [Lu AF60097] -8): 0.9992 | 5-HT uptake inhibition by Lu AF60097 (SERT F556R; [Lu AF60097] -9): 0.9608 | 5-HT uptake inhibition by Lu AF60097 (SERT F556R; [Lu AF60097] -10): 1.013
